Reference: US10570117B2, “Phenylimidazole compound” (Otsuka Pharmaceutical Factory, Inc., priority 2015, dated 2020)
In brackets after ≈: the same amount, converted by molar mass. Where two headings read alike, the source gives them in different places.

Columns and labels:
[1] = test system: lipoprotein lipase (LPL) gene; test: LPL mRNA elevating action (RT-PCR quantification of LPL mRNA in C2Cl2 cells); type: cell-based, mouse; conditions: compound 10 μM, ratio relative to the amount of LPL mRNA in cells with DMSO only; for fold induction at 10 µM: Mus musculus, 24 h, read-out: Rate of increase in LPL mRNA
Description: LPL mRNA Elevating Action
C2Cl2 cells (cell strain derived from striated muscle of mouse) were seeded in 96-well plates using a DMEM medium (Gibco) (containing 2 mM L-glutamine and 10% fetal bovine serum). After the cells were grown, the medium was removed. Subsequently, media obtained by adding dimethyl sulfoxide (DMSO) solutions of the compounds to the same medium as described above to a concentration of 10 μM were individually added to the cells and allowed to stand for 24 hours. The compound-containing media were removed, and the plates were washed with phosphate buffered saline. Thereafter, the remaining cells were lysed and subjected to a reverse transcription polymerase chain reaction (RT-PCR reaction) to obtain cDNA. Primers specific to lipoprotein lipase (LPL) gene, a necessary enzyme, etc., were added to the obtained cDNA. The mixture was set in 7500 Fast Real Time PCR System produced by Applied Biosystem to perform a PCR reaction (20 cycles) and the amount of LPL mRNA amplified was quantified. The LPL mRNA elevating action of each compound in the test cells was indicated as the ratio relative to the amount of LPL mRNA in cells allowed to stand in a medium to which only DMSO was added, with the amount being defined as 1.
As Comparative Example 1, a test was performed in the same manner as above, using a compound disclosed as the compound of Example 57 in WO2010/090200.

[2] = Solubility in gastric juice or intestinal juice model fluid (precipitation method using DMSO); type: physicochemical; conditions: room temperature
Summary of the method: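 Dissolved amount (μg/mL) quantified by UV of filtrate versus pre-made calibration curves. Precipitation approach: DMSO solutions spiked into pH 1.2 (JP 1st fluid) or pH 6.8 (JP 2nd fluid) medium, shaken at room temperature for 24 h before insolubles were filtered off.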

[3] = pH 1.2, simulated gastric fluid, kinetic from dmso stock, 1st fluid for Disintegration Test of Japanese Pharmacopoeia (pH: 1.2), read-out: Solubility (μg/mL) 1st fluid
[4] = pH 6.8, kinetic from dmso stock, 2nd fluid for Disintegration Test of Japanese Pharmacopoeia (pH: 6.8), read-out: Solubility (μg/mL) 2nd fluid

Compound	solubility at 24 h [2, 3] [µg/mL]	solubility at 24 h [2, 4] [µg/mL]	Solubility (μg/mL) 1st fluid ([2]; 1st fluid for Disintegration Test of Japanese Pharmacopoeia (pH: 1.2), 24 hours) [µg/mL]	Solubility (μg/mL) 2nd fluid ([2]; 2nd fluid for Disintegration Test of Japanese Pharmacopoeia (pH: 6.8), 24 hours) [µg/mL]	melting point [°C]	fold induction at 10 µM [1]	Rate of increase in LPL mRNA ([1]; 24 hours)
COc1cc(OCc2ccc(C(F)(F)F)nc2)ccc1-c1cnc(C2CCC(F)(F)C2)[nH]1 (stereo not drawn) [Example 3]	87.5 (≈ 193 µM)	1 (≈ 2.21 µM)	–	–	–	2.48	–
COc1cc(OCc2ccc(C(F)(F)F)nc2)c(C)cc1-c1cnc(C2CCC(F)(F)CC2)[nH]1 [Example 12]	15.6 (≈ 32.4 µM)	< 1.7	–	–	–	2.23	–
COc1c(OCc2ccc(C(F)(F)F)nc2)ccc(-c2cnc(C3CCC(F)(F)CC3)[nH]2)c1OC [Example 14]	> 99	< 0.4	–	–	–	5.42	–
COc1cc(OCc2ccc(C(F)(F)F)nc2)ccc1-c1nc(C2CCCCC2)[nH]c1C [Example 48]	> 89	80.8 (≈ 181 µM)	–	–	–	3.02	–
COc1cc(-c2c[nH]c(C3CCCCCC3)n2)ccc1OCc1ccc(C(F)(F)F)cn1 [Example 72]	> 116	1.8 (≈ 4.04 µM)	–	–	–	2.75	–
COc1cc(OCc2ncc(Br)cc2F)ccc1-c1cnc(-c2ccc(F)nc2)[nH]1 [Example 111, 5-bromo-3-fluoro-2-[[4-(2-(6-fluoropyridin-3-yl)-1H-imidazol-5-yl)-3-methoxyphenoxy]methyl]pyridine]	9.4 (≈ 19.9 µM)	1.2 (≈ 2.54 µM)	–	–	–	2.46	–
COc1cc(OC(C)c2ccc(C(F)(F)F)cn2)ccc1-c1c[nH]c(-c2ccc(F)nc2)n1 (stereo not drawn) [Example 117]	80.2 (≈ 175 µM)	2.6 (≈ 5.67 µM)	–	–	–	3.38	–
COc1cc(OC(C)c2ncc(Br)cc2F)ccc1-c1cnc(-c2ccc(F)nc2)[nH]1 (stereo not drawn) [Example 128]	94.9 (≈ 195 µM)	4 (≈ 8.21 µM)	–	–	–	2.28	–
COc1cc(OCc2ncc(Cl)cc2C(F)(F)F)ccc1-c1cnc(-c2ccc(F)nc2)[nH]1 [Example 138]	–	–	–	–	–	2.97	–
COc1cc(OCc2ccc(C(F)(F)F)cn2)ccc1-c1nc(-c2ccc(Cl)nc2)n(CC2CC2)c1C [Example 156]	104 (≈ 197 µM)	3.6 (≈ 6.81 µM)	–	–	–	3.27	–
COc1cc(-c2[nH]c(C3CCCC(F)(F)C3)nc2Br)ccc1OCc1ccc(C(F)(F)F)cn1 (stereo not drawn) [Example 171]	–	–	>109	<1.9	–	–	2.89
COc1cc(OCc2ncc(C(F)(F)F)cc2F)ccc1-c1[nH]c(C2CC(F)(F)C2)nc1F [Example 401]	–	–	–	–	–	2.9	–
COc1cc(OCc2ncc(C(F)(F)F)cc2F)ccc1-c1cnc(-c2ccc(C)nc2)[nH]1 [Example 402]	–	–	–	–	–	2.37	–
COc1cc(-c2cnc(-c3ccc(C)nc3)[nH]2)ccc1OCc1ncc(C(F)(F)F)cc1F [Example 403]	–	–	–	–	–	2.09	–
COc1cc(OCc2ncc(C(F)(F)F)cc2F)ccc1-c1[nH]c(-c2ccc(C)nc2)nc1Cl [Example 404]	–	–	–	–	–	3.26	–
COc1cc(-c2[nH]c(-c3ccc(C)nc3)nc2Cl)ccc1OCc1ncc(C(F)(F)F)cc1F [Example 405]	–	–	–	–	–	2.78	–

Now from value to molecule, other results behind:

solubility at 24 h [2, 3] [µg/mL]	solubility at 24 h [2, 4] [µg/mL]	Solubility (μg/mL) 1st fluid ([2]; 1st fluid for Disintegration Test of Japanese Pharmacopoeia (pH: 1.2), 24 hours) [µg/mL]	Solubility (μg/mL) 2nd fluid ([2]; 2nd fluid for Disintegration Test of Japanese Pharmacopoeia (pH: 6.8), 24 hours) [µg/mL]	melting point [°C]	Compound	fold induction at 10 µM [1]	Rate of increase in LPL mRNA ([1]; 24 hours)
7.5 (≈ 17 µM)	< 1.6	–	–	–	COc1cc(OCc2cnc(C)cn2)ccc1-c1nc(-c2ccc(Cl)nc2)[nH]c1Cl [Example 219]	2.42	–
10.8 (≈ 21.1 µM)	2.2 (≈ 4.31 µM)	–	–	155 to 159	COc1cc(OC(C)c2ncc(C(F)(F)F)cc2F)ccc1-c1[nH]c(-c2ccc(F)nc2)nc1Cl (stereo not drawn) [Example 289]	–	–
9.9 (≈ 20.1 µM)	3.5 (≈ 7.1 µM)	–	–	74 to 97	COc1cc(O[C@@H](C)c2ccc(C(F)(F)F)nc2)ccc1-c1[nH]c(-c2ccc(F)nc2)nc1Cl [Example 291]	–	–
73 (≈ 137 µM)	2.3 (≈ 4.32 µM)	–	–	–	COc1cc(OCc2ccc(C(F)(F)F)cn2)ccc1-c1c(Cl)nc(-c2ccc(F)nc2)n1CC1CC1 [Example 296]	3.48	–
108 (≈ 196 µM)	1.6 (≈ 2.89 µM)	–	–	177 to 182	COc1cc(OCc2ccc(C(F)(F)F)nc2)ccc1-c1nc(-c2ccc(Cl)nc2)n(C)c1Br [Example 298]	–	–
24.7 (≈ 46 µM)	0.4 (≈ 0.744 µM)	–	–	134 to 136	COc1cc(OCc2ccc(C(F)(F)F)nc2)ccc1-c1c(Br)nc(-c2ccc(F)nc2)n1C [Example 305]	–	–
5.6 (≈ 11.4 µM)	< 0.4	–	–	138 to 140	COc1cc(OCc2ccc(C(F)(F)F)nc2)ccc1-c1c(Cl)nc(-c2ccc(F)nc2)n1C [Example 311]	–	–
23.6 (≈ 47.9 µM)	< 0.4	–	–	142 to 144	COc1cc(OCc2ccc(C(F)(F)F)cn2)ccc1-c1c(Cl)nc(-c2ccc(F)nc2)n1C [Example 312]	–	–
20.2 (≈ 43.7 µM)	0.8 (≈ 1.73 µM)	–	–	–	COc1cc(-c2cnc(-c3ccc(F)nc3)[nH]2)ccc1OCc1ncc(C(F)(F)F)cc1F [Example 324]	1.95	–
> 62	59.7 (≈ 194 µM)	–	–	–	COc1cc(O)ccc1-c1cnc(C2CCC(F)(F)CC2)[nH]1 [Example 338]	1.32	–
93.8 (≈ 199 µM)	8.1 (≈ 17.2 µM)	–	–	–	COc1cc(OCc2ncc(C(F)(F)F)cc2F)ccc1-c1cnc(C2CCC(F)(F)C2)[nH]1 (stereo not drawn) [Example 340]	2.26	–
91.7 (≈ 195 µM)	15.8 (≈ 33.5 µM)	–	–	–	COc1cc(-c2cnc(C3CCC(F)(F)C3)[nH]2)ccc1OCc1ncc(C(F)(F)F)cc1F (stereo not drawn) [Example 341]	1.75	–
95.5 (≈ 195 µM)	5 (≈ 10.2 µM)	–	–	–	CCc1nc(-c2ccc(F)nc2)[nH]c1-c1ccc(OCc2ncc(C(F)(F)F)cc2F)cc1OC [Example 362]	2.89	–
79.2 (≈ 182 µM)	24.7 (≈ 56.7 µM)	–	–	–	COc1cc(-c2cnc(C3CCCC3)[nH]2)ccc1OCc1ncc(C(F)(F)F)cc1F [Example 366]	1.95	–
84 (≈ 199 µM)	42.9 (≈ 102 µM)	–	–	–	COc1cc(OCc2ncc(C(F)(F)F)cc2F)ccc1-c1cnc(C2CCC2)[nH]1 [Example 371]	3.57	–
80.4 (≈ 191 µM)	33.5 (≈ 79.5 µM)	–	–	–	COc1cc(-c2cnc(C3CCC3)[nH]2)ccc1OCc1ncc(C(F)(F)F)cc1F [Example 372]	1.95	–
73.9 (≈ 181 µM)	72.5 (≈ 178 µM)	–	–	–	COc1cc(OCc2ncc(C(F)(F)F)cc2F)ccc1-c1cnc(C2CC2)[nH]1 [Example 375]	1.83	–
75.2 (≈ 185 µM)	79.4 (≈ 195 µM)	–	–	–	COc1cc(-c2cnc(C3CC3)[nH]2)ccc1OCc1ncc(C(F)(F)F)cc1F [Example 376]	1.18	–
74.8 (≈ 183 µM)	62.1 (≈ 152 µM)	–	–	–	COc1cc(-c2cnc(C(C)C)[nH]2)ccc1OCc1ncc(C(F)(F)F)cc1F [Example 382]	1.41	–
96 (≈ 171 µM)	1.8 (≈ 3.2 µM)	–	–	–	CCCCOC(C)n1cc(-c2ccc(OCc3ncc(C(F)(F)F)cc3F)cc2OC)nc1-c1ccc(F)nc1 (stereo not drawn) [Example 389]	1.63	–
1.1 (≈ 2.37 µM)	7.1 (≈ 15.3 µM)	–	–	–	COc1cc(-c2cnc(CCC(F)(F)F)[nH]2)ccc1OCc1ncc(C(F)(F)F)cc1F [Example 391]	1.58	–
